# Target: T1, SIRT1 (Homo sapiens, UniProt Q96EB6)
# T1 sequence (Q96EB6 1-747): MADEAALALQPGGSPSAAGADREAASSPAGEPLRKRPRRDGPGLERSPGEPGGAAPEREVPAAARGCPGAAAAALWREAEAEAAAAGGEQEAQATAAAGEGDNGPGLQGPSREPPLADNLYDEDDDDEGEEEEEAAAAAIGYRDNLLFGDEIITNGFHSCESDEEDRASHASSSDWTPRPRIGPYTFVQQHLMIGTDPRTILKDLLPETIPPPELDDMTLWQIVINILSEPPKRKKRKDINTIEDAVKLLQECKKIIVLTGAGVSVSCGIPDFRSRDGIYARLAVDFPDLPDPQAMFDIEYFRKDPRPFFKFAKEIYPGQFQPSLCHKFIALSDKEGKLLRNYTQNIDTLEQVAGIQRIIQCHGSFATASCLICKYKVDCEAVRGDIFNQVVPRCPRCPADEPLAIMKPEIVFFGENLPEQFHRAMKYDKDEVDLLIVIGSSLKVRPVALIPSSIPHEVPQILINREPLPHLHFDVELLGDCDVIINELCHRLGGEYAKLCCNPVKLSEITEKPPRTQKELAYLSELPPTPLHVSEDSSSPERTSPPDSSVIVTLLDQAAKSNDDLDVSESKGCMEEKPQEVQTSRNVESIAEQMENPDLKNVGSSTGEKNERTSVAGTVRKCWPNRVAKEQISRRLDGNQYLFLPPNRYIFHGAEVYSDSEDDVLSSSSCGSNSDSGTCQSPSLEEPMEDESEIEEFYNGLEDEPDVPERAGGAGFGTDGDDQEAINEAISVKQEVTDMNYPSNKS
# Test: Trp mass spectrometry assay of SIRT1 activity
# Format: biochemical
# Settings: Trp assay; concentration giving 150% activation of SIRT1
# Summary of the method: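 His-tagged SIRT1 expressed in E. coli BL21(DE3), 10 nM, incubated 25 min at 25° C. with 0.5 μM Ac-RHKK(Ac)W-NH2 peptide and 120 μM βNAD+ in 50 mM HEPES pH 7.5, […], 1 mM DTT, 0.05% BSA; formic acid stop. OAADPR or deacetylated peptide measured by mass spectrometry; EC1.5 and percent maximum activation versus DMSO control.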
row,SMILES,Trp EC1.5 (μM)
1,CO[C@H]1CCN(c2ccc3ncc(C(=O)Nc4ccncc4F)n3n2)C1 [Compound 936],B (EC1.5 1-25 μM)
2,"O=C(Nc1cccnc1)c1cnn2ccc(N3CCCCC3C(F)(F)F)nc12 (stereo not drawn) [Compound 945, N-(pyridin-3-yl)-5-(2-(trifluoromethyl)piperidin-1-yl)pyrazolo[1,5-a]pyrimidine-3-carboxamide]",A (EC1.5<1 μM)
3,CN1CCN(c2ccc3ncc(C(=O)Nc4cccnc4)n3n2)CC1 [Compound 946],C (EC1.5>25 μM)
4,"O=C(Nc1cccnc1)c1cnc2ccc(N3CCCC3C(F)(F)F)nn12 (stereo not drawn) [Compound 966, N-(pyridin-3-yl)-6-(2-(trifluoromethyl)pyrrolidin-1-yl)imidazo[1,2-b]pyridazine-3-carboxamide]",A (EC1.5<1 μM)

# Same assay, conditions: Trp assay; percent maximum fold activation; read-out: Trp % Fold Act
row,SMILES,Emax [%]
1,CO[C@H]1CCN(c2ccc3ncc(C(=O)Nc4ccncc4F)n3n2)C1 [Compound 936],< 350
2,"O=C(Nc1cccnc1)c1cnn2ccc(N3CCCCC3C(F)(F)F)nc12 (stereo not drawn) [Compound 945, N-(pyridin-3-yl)-5-(2-(trifluoromethyl)piperidin-1-yl)pyrazolo[1,5-a]pyrimidine-3-carboxamide]",≥ 350
3,CN1CCN(c2ccc3ncc(C(=O)Nc4cccnc4)n3n2)CC1 [Compound 946],< 350
4,CN1CCN(c2ccc3ncc(C(=O)Nc4ccc(F)cn4)n3n2)CC1 [Compound 947],< 350
5,CN1CCN(c2ccc3ncc(C(=O)Nc4ccccn4)n3n2)CC1 [Compound 948],< 350
6,CN1CCN(c2ccc3ncc(C(=O)Nc4ccncc4F)n3n2)CC1 [Compound 949],< 350
7,CN1CCN(c2ccc3ncc(C(=O)Nc4cccnn4)n3n2)CC1 [Compound 950],< 350
8,CN1CCN(c2ccc3ncc(C(=O)Nc4cncc(F)c4)n3n2)CC1 [Compound 951],< 350
9,CC1(C)CCN(c2ccc3ncc(C(=O)Nc4ccccn4)n3n2)C1 [Compound 952],≥ 350
10,CC1(C)CCN(c2ccc3ncc(C(=O)Nc4cccnc4)n3n2)C1 [Compound 953],≥ 350
11,CC1(C)CCN(c2ccc3ncc(C(=O)Nc4ccc(F)cn4)n3n2)C1 [Compound 954],< 350
12,CC1(C)CCN(c2ccc3ncc(C(=O)Nc4cccnn4)n3n2)C1 [Compound 955],≥ 350
13,CC1(C)CCN(c2ccc3ncc(C(=O)Nc4cncc(F)c4)n3n2)C1 [Compound 956],< 350
14,O=C(Nc1ccccn1)c1cnn2ccc(N3CCCCC3C(F)(F)F)nc12 (stereo not drawn) [Compound 957],≥ 350
15,O=C(Nc1cccnc1)c1cnc2ccc(N3CCC(C(F)(F)F)C3)nn12 (stereo not drawn) [Compound 958],≥ 350
16,O=C(Nc1cncc(F)c1)c1cnc2ccc(N3CCC(C(F)(F)F)C3)nn12 (stereo not drawn) [Compound 959],≥ 350
17,CC1(C)CCN(c2ccc3ncc(C(=O)Nc4ccncc4F)n3n2)C1 [Compound 960],< 350
18,O=C(Nc1ccncn1)c1cnc2ccc(N3CCOCC3)nn12 [Compound 961],< 350
19,O=C(Nc1ccc(F)cn1)c1cnc2ccc(N3CCC(F)(F)CC3)nn12 [Compound 962],< 350
20,O=C(Nc1ccncc1F)c1cnc2ccc(N3CCC(F)(F)CC3)nn12 [Compound 963],< 350
21,O=C(Nc1ccncn1)c1cnc2ccc(N3CCC(F)(F)CC3)nn12 [Compound 964],< 350
22,Cc1nc(NC(=O)c2cnn3ccc(N4CCCCC4C(F)(F)F)nc23)sc1C (stereo not drawn) [Compound 965],≥ 350
23,"O=C(Nc1cccnc1)c1cnc2ccc(N3CCCC3C(F)(F)F)nn12 (stereo not drawn) [Compound 966, N-(pyridin-3-yl)-6-(2-(trifluoromethyl)pyrrolidin-1-yl)imidazo[1,2-b]pyridazine-3-carboxamide]",≥ 350
24,O=C(Nc1cncc(F)c1)c1cnc2ccc(N3CCCC3C(F)(F)F)nn12 (stereo not drawn) [Compound 967],≥ 350
25,O=C(Nc1cccnn1)c1cnc2ccc(N3CCCC3C(F)(F)F)nn12 (stereo not drawn) [Compound 968],≥ 350
26,Cc1nc(NC(=O)c2cnc3ccc(N4CCCC4C(F)(F)F)nn23)sc1C (stereo not drawn) [Compound 969],≥ 350
27,"O=C(Nc1ccncn1)c1cnc2ccc(N3CCCC3C(F)(F)F)nn12 (stereo not drawn) [Compound 970, N-(pyrimidin-4-yl)-6-(2-(trifluoromethyl)pyrrolidin-1-yl)imidazo[1,2-b]pyridazine-3-carboxamide]",≥ 350
28,CN1CCN(c2ccc3ncc(C(=O)Nc4ccncn4)n3n2)CC1 [Compound 971],< 350

row,SMILES,Emax [%]
1,CC1(C)CCN(c2ccc3ncc(C(=O)Nc4ccncn4)n3n2)C1 [Compound 972],< 350
2,"CO[C@H]1CCN(c2ccc3ncc(C(=O)Nc4ccncn4)n3n2)C1 [Compound 973, (S)-6-(3-methoxypyrrolidin-1-yl)-N-(pyrimidin-4-yl)imidazo[1,2-b]pyridazine-3-carboxamide]",< 350
3,O=C(Nc1ccccn1)c1cnc2ccc(N3CCCC3C(F)(F)F)nn12 (stereo not drawn) [Compound 974],≥ 350
4,CC1CCN(c2ccc3ncc(C(=O)Nc4ccccn4)n3n2)C1 (stereo not drawn) [Compound 975],< 350
5,CC1CCN(c2ccc3ncc(C(=O)Nc4cccnc4)n3n2)C1 (stereo not drawn) [Compound 976],≥ 350
6,CC1CCN(c2ccc3ncc(C(=O)Nc4ccc(F)cn4)n3n2)C1 (stereo not drawn) [Compound 977],< 350
7,CC1CCN(c2ccc3ncc(C(=O)Nc4cccnn4)n3n2)C1 (stereo not drawn) [Compound 978],≥ 350
8,CC1CCN(c2ccc3ncc(C(=O)Nc4cncc(F)c4)n3n2)C1 (stereo not drawn) [Compound 979],≥ 350
9,"Cc1nc2ccc(N3CCC(F)(F)C3)nn2c1C(=O)Nc1cccnc1 [Compound 980, 6-(3,3-difluoropyrrolidin-1-yl)-2-methyl-N-(pyridin-3-yl)imidazo[1,2-b]pyridazine-3-carboxamide]",≥ 350
10,O=C(Nc1ccccn1)c1cnc2ccc(N3CC[C@H](O)C3)nn12 [Compound 981],< 350
11,O=C(Nc1cccnc1)c1cnc2ccc(N3CC[C@H](O)C3)nn12 [Compound 982],< 350
12,O=C(Nc1ccc(F)cn1)c1cnc2ccc(N3CC[C@H](O)C3)nn12 [Compound 983],< 350
13,O=C(Nc1cccnn1)c1cnc2ccc(N3CC[C@H](O)C3)nn12 [Compound 984],< 350
14,O=C(Nc1cncc(F)c1)c1cnc2ccc(N3CC[C@H](O)C3)nn12 [Compound 985],< 350
15,O=C(Nc1ccccn1)c1cnc2ccc(N3CCC[C@H](F)C3)nn12 [Compound 986],≥ 350
16,O=C(Nc1cccnc1)c1cnc2ccc(N3CCC[C@H](F)C3)nn12 [Compound 987],≥ 350
17,O=C(Nc1ccc(F)cn1)c1cnc2ccc(N3CCC[C@H](F)C3)nn12 [Compound 988],≥ 350
18,O=C(Nc1cccnn1)c1cnc2ccc(N3CCC[C@H](F)C3)nn12 [Compound 989],≥ 350
19,Cc1nc2ccc(N3CCC(F)(F)C3)nn2c1C(=O)Nc1cncc(F)c1 [Compound 991],< 350
20,CC1CCN(c2ccc3ncc(C(=O)Nc4ccncn4)n3n2)C1 (stereo not drawn) [Compound 992],< 350
21,O=C(Nc1ccncn1)c1cnc2ccc(N3CCC[C@H](F)C3)nn12 [Compound 993],≥ 350
22,Cc1nc2ccc(N3CCCC(F)(F)C3)nn2c1C(=O)Nc1cccnn1 [Compound 994],≥ 350
23,C[C@@H]1CN(c2ccc3ncc(C(=O)Nc4cccnc4)n3n2)C[C@H](C)O1 [Compound 995],≥ 350
24,C[C@@H]1CN(c2ccc3ncc(C(=O)Nc4cccnn4)n3n2)C[C@H](C)O1 [Compound 996],≥ 350
25,C[C@@H]1CN(c2ccc3ncc(C(=O)Nc4cncc(F)c4)n3n2)C[C@H](C)O1 [Compound 997],≥ 350
26,Cc1nc2ccc(N3CCC(C(F)(F)F)C3)nn2c1C(=O)Nc1cccnn1 (stereo not drawn) [Compound 998],≥ 350
27,O=C(Nc1ccccn1)c1cnn2ccc(N3CCCC3C(F)(F)F)nc12 (stereo not drawn) [Compound 999],≥ 350

# Same assay, conditions: percent maximum fold activation of SIRT1; Trp peptide substrate; read-out: Trp % Fold Act
row,SMILES,Emax [%]
1,O=C(Nc1cccnc1)c1cnn2ccc(N3CCCC3C(F)(F)F)nc12 (stereo not drawn) [Compound 1000],≥ 350
2,O=C(Nc1cncc(F)c1)c1cnn2ccc(N3CCCC3C(F)(F)F)nc12 (stereo not drawn) [Compound 1001],≥ 350
3,C[C@@H]1CN(c2ccc3ncc(C(=O)Nc4cccnc4)n3n2)CCO1 [Compound 1002],≥ 350
4,C[C@@H]1CN(c2ccc3ncc(C(=O)Nc4cccnn4)n3n2)CCO1 [Compound 1003],≥ 350
5,C[C@@H]1CN(c2ccc3ncc(C(=O)Nc4cncc(F)c4)n3n2)CCO1 [Compound 1004],≥ 350
6,Cc1nc2ccc(N3CCC(F)(F)C3)nn2c1C(=O)Nc1cccnn1 [Compound 1005],≥ 350
7,Cc1nc2ccc(N3CCCC3C(F)(F)F)nn2c1C(=O)Nc1cccnn1 (stereo not drawn) [Compound 1006],≥ 350
8,O=C(Nc1cccnc1)c1cnn2ccc(N3CCCC(C(F)(F)F)C3)nc12 (stereo not drawn) [Compound 1007],≥ 350
9,O=C(Nc1ccccn1)c1cnn2ccc(N3CCCC(C(F)(F)F)C3)nc12 (stereo not drawn) [Compound 1008],≥ 350
10,O=C(Nc1cncc(F)c1)c1cnn2ccc(N3CCCC(C(F)(F)F)C3)nc12 (stereo not drawn) [Compound 1009],≥ 350
11,O=C(Nc1cncc(F)c1)c1cnn2ccc(N3CCCCC3C(F)(F)F)nc12 (stereo not drawn) [Compound 1010],≥ 350
12,O=C(Nc1ccccn1)c1cnn2ccc(N3CCC(C(F)(F)F)C3)nc12 (stereo not drawn) [Compound 1011],≥ 350
13,O=C(Nc1cccnc1)c1cnn2ccc(N3CCC(C(F)(F)F)C3)nc12 (stereo not drawn) [Compound 1012],≥ 350

# — patent publication US9957271B2, “Substituted bicyclic aza-heterocycles and analogues as sirtuin modulators” (GlaxoSmithKline, LLC, priority 2012, dated 2018)
